{
  "source": "ChEMBL document CHEMBL3217532",
  "about": "“New analyses of MIC90 data to aid antibacterial drug discovery” (2011)",
  "type_in_all_cases": "functional",
  "key": {"[1]": {"tested_on": "Pseudomonas aeruginosa", "assay": "Antimicrobial activity against Pseudomonas aeruginosa 1951-00"}, "[2]": {"tested_on": "Pseudomonas aeruginosa", "assay": "Antimicrobial activity against Pseudomonas aeruginosa 1752-00"}, "[3]": {"tested_on": "Pseudomonas aeruginosa", "assay": "Antimicrobial activity against Pseudomonas aeruginosa 1753-00"}, "[4]": {"tested_on": "Pseudomonas aeruginosa", "assay": "Antimicrobial activity against Pseudomonas aeruginosa 1957-00"}, "[5]": {"tested_on": "Pseudomonas aeruginosa", "assay": "Antimicrobial activity against Pseudomonas aeruginosa 1569-05"}, "[6]": {"tested_on": "Pseudomonas aeruginosa", "assay": "Antimicrobial activity against Pseudomonas aeruginosa 1570-05"}, "[7]": {"tested_on": "Pseudomonas aeruginosa", "assay": "Antimicrobial activity against Pseudomonas aeruginosa 1613-09"}, "[8]": {"tested_on": "Pseudomonas aeruginosa", "assay": "Antimicrobial activity against Pseudomonas aeruginosa 1954-00"}, "[9]": {"tested_on": "Pseudomonas aeruginosa", "assay": "Antimicrobial activity against Pseudomonas aeruginosa PA-4624"}, "[10]": {"tested_on": "Pseudomonas aeruginosa", "assay": "Antimicrobial activity against Pseudomonas aeruginosa 1565-05"}, "[11]": {"tested_on": "Pseudomonas aeruginosa", "assay": "Antimicrobial activity against Pseudomonas aeruginosa 1566-05"}, "[12]": {"tested_on": "Pseudomonas aeruginosa", "assay": "Antimicrobial activity against Pseudomonas aeruginosa 1567-05"}, "[13]": {"tested_on": "Pseudomonas aeruginosa", "assay": "Antimicrobial activity against Pseudomonas aeruginosa 1568-05"}, "[14]": {"tested_on": "Pseudomonas aeruginosa", "assay": "Antimicrobial activity against Pseudomonas aeruginosa 1767-00"}, "[15]": {"tested_on": "Pseudomonas aeruginosa", "assay": "Antimicrobial activity against Pseudomonas aeruginosa 1768-00"}, "[16]": {"tested_on": "Pseudomonas aeruginosa", "assay": "Antimicrobial activity against Pseudomonas aeruginosa 1956-00"}, "[17]": {"tested_on": "Pseudomonas aeruginosa", "assay": "Antimicrobial activity against Pseudomonas aeruginosa PA-75"}, "[18]": {"tested_on": "Pseudomonas aeruginosa", "assay": "Antimicrobial activity against Pseudomonas aeruginosa 1955-00"}, "[19]": {"tested_on": "Pseudomonas aeruginosa", "assay": "Antimicrobial activity against Pseudomonas aeruginosa 1561-05"}, "[20]": {"tested_on": "Pseudomonas aeruginosa", "assay": "Antimicrobial activity against Pseudomonas aeruginosa 1563-00"}, "[21]": {"tested_on": "Pseudomonas aeruginosa", "assay": "Antimicrobial activity against Pseudomonas aeruginosa 1564-05"}, "[22]": {"tested_on": "Pseudomonas aeruginosa", "assay": "Antimicrobial activity against Pseudomonas aeruginosa 1615-09"}, "[23]": {"tested_on": "Pseudomonas aeruginosa", "assay": "Antimicrobial activity against Pseudomonas aeruginosa 1761-00"}, "[24]": {"tested_on": "Pseudomonas aeruginosa", "assay": "Antimicrobial activity against Pseudomonas aeruginosa 1764-00"}, "[25]": {"tested_on": "Pseudomonas aeruginosa", "assay": "Antimicrobial activity against Pseudomonas aeruginosa 1765-00"}, "[26]": {"tested_on": "Pseudomonas aeruginosa", "assay": "Antimicrobial activity against Pseudomonas aeruginosa 1766-00"}, "[27]": {"tested_on": "Pseudomonas aeruginosa", "assay": "Antimicrobial activity against Pseudomonas aeruginosa 1952-00"}, "[28]": {"tested_on": "Pseudomonas aeruginosa", "assay": "Antimicrobial activity against Pseudomonas aeruginosa 1953-00"}, "[29]": {"tested_on": "Pseudomonas aeruginosa", "assay": "Antimicrobial activity against Pseudomonas aeruginosa 1562-05"}, "[30]": {"tested_on": "Pseudomonas aeruginosa", "assay": "Antimicrobial activity against Pseudomonas aeruginosa 1611-09"}, "[31]": {"tested_on": "Pseudomonas aeruginosa", "assay": "Antimicrobial activity against Pseudomonas aeruginosa 1614-09"}, "[32]": {"tested_on": "Pseudomonas aeruginosa", "assay": "Antimicrobial activity against Pseudomonas aeruginosa 1619-08"}, "[33]": {"tested_on": "Pseudomonas aeruginosa", "assay": "Antimicrobial activity against Pseudomonas aeruginosa 1760-00"}, "[34]": {"tested_on": "Pseudomonas aeruginosa", "assay": "Antimicrobial activity against Pseudomonas aeruginosa PA-1757"}, "[35]": {"tested_on": "Pseudomonas aeruginosa", "assay": "Antimicrobial activity against Pseudomonas aeruginosa 1527-08"}, "[36]": {"tested_on": "Pseudomonas aeruginosa", "assay": "Antimicrobial activity against Pseudomonas aeruginosa PA-4991"}, "[37]": {"tested_on": "Pseudomonas aeruginosa", "assay": "Antimicrobial activity against Pseudomonas aeruginosa PA-4999"}, "[38]": {"tested_on": "Pseudomonas aeruginosa", "assay": "Antimicrobial activity against Pseudomonas aeruginosa 1612-09"}, "[39]": {"tested_on": "Pseudomonas aeruginosa", "assay": "Antimicrobial activity against Pseudomonas aeruginosa PA-4995"}, "[40]": {"tested_on": "Pseudomonas aeruginosa", "assay": "Antimicrobial activity against Pseudomonas aeruginosa 1513-08"}, "[41]": {"tested_on": "Pseudomonas aeruginosa", "assay": "Antimicrobial activity against Pseudomonas aeruginosa 1515-08"}, "[42]": {"tested_on": "Pseudomonas aeruginosa", "assay": "Antimicrobial activity against Pseudomonas aeruginosa PA-4990"}, "[43]": {"tested_on": "Pseudomonas aeruginosa", "assay": "Antimicrobial activity against Pseudomonas aeruginosa PA-4997"}, "[44]": {"tested_on": "Pseudomonas aeruginosa", "assay": "Antimicrobial activity against Pseudomonas aeruginosa 1523-08"}, "[45]": {"tested_on": "Pseudomonas aeruginosa", "assay": "Antimicrobial activity against Pseudomonas aeruginosa PA-4993"}, "[46]": {"tested_on": "Pseudomonas aeruginosa", "assay": "Antimicrobial activity against Pseudomonas aeruginosa 1509-08"}, "[47]": {"tested_on": "Pseudomonas aeruginosa", "assay": "Antimicrobial activity against Pseudomonas aeruginosa 1510-08"}, "[48]": {"tested_on": "Pseudomonas aeruginosa", "assay": "Antimicrobial activity against Pseudomonas aeruginosa 1512-08"}, "[49]": {"tested_on": "Pseudomonas aeruginosa", "assay": "Antimicrobial activity against Pseudomonas aeruginosa 1514-08"}, "[50]": {"tested_on": "Pseudomonas aeruginosa", "assay": "Antimicrobial activity against Pseudomonas aeruginosa 1521-08"}, "[51]": {"tested_on": "Pseudomonas aeruginosa", "assay": "Antimicrobial activity against Pseudomonas aeruginosa 1526-08"}},
  "data": [
    {"compound": "C[C@@H](O)[C@H]1C(=O)N2C(C(=O)O)=C(S[C@@H]3CN[C@H](C(=O)N(C)C)C3)[C@H](C)[C@H]12", "note": "[MEROPENEM]", "values": [
      {"measurement": "MIC90", "setting": "[1]", "result": 0.06, "unit": "µg/mL"},
      {"measurement": "MIC90", "setting": "[2]", "result": 0.125, "unit": "µg/mL"},
      {"measurement": "MIC90", "setting": "[3]", "result": 0.125, "unit": "µg/mL"},
      {"measurement": "MIC90", "setting": "[4]", "result": 0.125, "unit": "µg/mL"},
      {"measurement": "MIC90", "setting": "[5]", "result": 0.25, "unit": "µg/mL"},
      {"measurement": "MIC90", "setting": "[6]", "result": 0.25, "unit": "µg/mL"},
      {"measurement": "MIC90", "setting": "[7]", "result": 0.25, "unit": "µg/mL"},
      {"measurement": "MIC90", "setting": "[8]", "result": 0.25, "unit": "µg/mL"},
      {"measurement": "MIC90", "setting": "[9]", "result": 0.25, "unit": "µg/mL"},
      {"measurement": "MIC90", "setting": "[10]", "result": 0.5, "unit": "µg/mL"},
      {"measurement": "MIC90", "setting": "[11]", "result": 0.5, "unit": "µg/mL"},
      {"measurement": "MIC90", "setting": "[12]", "result": 0.5, "unit": "µg/mL"},
      {"measurement": "MIC90", "setting": "[13]", "result": 0.5, "unit": "µg/mL"},
      {"measurement": "MIC90", "setting": "[14]", "result": 0.5, "unit": "µg/mL"},
      {"measurement": "MIC90", "setting": "[15]", "result": 0.5, "unit": "µg/mL"},
      {"measurement": "MIC90", "setting": "[16]", "result": 0.5, "unit": "µg/mL"},
      {"measurement": "MIC90", "setting": "[17]", "result": 0.5, "unit": "µg/mL"},
      {"measurement": "MIC90", "setting": "[18]", "result": 1, "unit": "µg/mL"},
      {"measurement": "MIC90", "setting": "[19]", "result": 2, "unit": "µg/mL"},
      {"measurement": "MIC90", "setting": "[20]", "result": 2, "unit": "µg/mL"},
      {"measurement": "MIC90", "setting": "[21]", "result": 2, "unit": "µg/mL"},
      {"measurement": "MIC90", "setting": "[22]", "result": 2, "unit": "µg/mL"},
      {"measurement": "MIC90", "setting": "[23]", "result": 2, "unit": "µg/mL"},
      {"measurement": "MIC90", "setting": "[24]", "result": 2, "unit": "µg/mL"},
      {"measurement": "MIC90", "setting": "[25]", "result": 2, "unit": "µg/mL"},
      {"measurement": "MIC90", "setting": "[26]", "result": 2, "unit": "µg/mL"},
      {"measurement": "MIC90", "setting": "[27]", "result": 2, "unit": "µg/mL"},
      {"measurement": "MIC90", "setting": "[28]", "result": 2, "unit": "µg/mL"},
      {"measurement": "MIC90", "setting": "[29]", "result": 4, "unit": "µg/mL"},
      {"measurement": "MIC90", "setting": "[30]", "result": 4, "unit": "µg/mL"},
      {"measurement": "MIC90", "setting": "[31]", "result": 4, "unit": "µg/mL"},
      {"measurement": "MIC90", "setting": "[32]", "result": 4, "unit": "µg/mL"},
      {"measurement": "MIC90", "setting": "[33]", "result": 4, "unit": "µg/mL"},
      {"measurement": "MIC90", "setting": "[34]", "result": 4, "unit": "µg/mL"},
      {"measurement": "MIC90", "setting": "[35]", "result": 8, "unit": "µg/mL"},
      {"measurement": "MIC90", "setting": "[36]", "result": 8, "unit": "µg/mL"},
      {"measurement": "MIC90", "setting": "[37]", "result": 8, "unit": "µg/mL"},
      {"measurement": "MIC90", "setting": "[38]", "result": 16, "unit": "µg/mL"},
      {"measurement": "MIC90", "setting": "[39]", "result": 16, "unit": "µg/mL"},
      {"measurement": "MIC90", "setting": "[40]", "result": 32, "unit": "µg/mL"},
      {"measurement": "MIC90", "setting": "[41]", "result": 32, "unit": "µg/mL"},
      {"measurement": "MIC90", "setting": "[42]", "result": 32, "unit": "µg/mL"},
      {"measurement": "MIC90", "setting": "[43]", "result": 64, "unit": "µg/mL"},
      {"measurement": "MIC90", "setting": "[44]", "result": 64, "unit": "µg/mL"},
      {"measurement": "MIC90", "setting": "[45]", "result": "> 64", "unit": "µg/mL"},
      {"measurement": "MIC90", "setting": "[46]", "result": "> 64", "unit": "µg/mL"},
      {"measurement": "MIC90", "setting": "[47]", "result": "> 64", "unit": "µg/mL"},
      {"measurement": "MIC90", "setting": "[48]", "result": "> 64", "unit": "µg/mL"},
      {"measurement": "MIC90", "setting": "[49]", "result": "> 64", "unit": "µg/mL"},
      {"measurement": "MIC90", "setting": "[50]", "result": "> 64", "unit": "µg/mL"},
      {"measurement": "MIC90", "setting": "[51]", "result": "> 64", "unit": "µg/mL"}
    ]}
  ]
}
